According to US11365192B2, “Pyridine compound substituted with azole” (TAISHO PHARMACEUTICAL CO., LTD., priority 2017, dated 2022):

Assays:
human CYP4A11 = human CYP4A11 (Homo sapiens (Human), UniProt Q02928); experiment: Inhibition test against 20-HETE producing enzyme CYP4A11 (luciferine derivative, luminescence); format: biochemical; conditions: E. coli membrane fraction expressing human CYP4A11, 60 μM luciferine derivative, room temperature 60 minutes
Experimental: (§1) (1) Inhibition Test for Each Compound of the Present Invention Against 20-HETE Producing Enzymes (CYP4F2 and CYP4A11)
(§2) In the CYP4F2 inhibition test, the reaction solution containing each compound [final concentration of 50 mM, KPO4 (pH 7.4), 2.5 μM luciferine derivative, and 1 mM NADPH] was added to an Escherichia coli membrane fraction (100 μg/mL protein) in which human CYP4F2 had been expressed. In the CYP4A11 inhibition test, the reaction solution containing each compound [final concentration of 100 mM, Tris-HCl (pH 7.5), 60 μM luciferine derivative, 1.3 mM NADP^+, 3.3 mM Glucose 6-Phosphate, 3.3 mM MgCl2, and 0.4 U/mL Glucose 6-Phosphate dehydrogenase] was added to an Escherichia coli membrane fraction (100 μg/mL protein) in which human CYP4A11 had been expressed. Following this, the membrane fraction was left to stand at room temperature for 60 minutes to perform an enzymatic reaction. After the reaction, a luciferine detection reagent was added, and the luminescence value was measured using a plate reader. By using that value, the percent inhibition of 20-HETE producing enzyme (%) was calculated according to the equation described below, and the 50% inhibitory concentration (IC50 value) for each compound was calculated. Percent inhibition of 20-HETE producing enzyme (%)=[1−(A−B)/(C−B)]*100
(§3) A: Luminescence value with addition of compound
(§4) B: Luminescence value without addition of compound and enzyme

human CYP4F2 = human CYP4F2 (Homo sapiens (Human), UniProt P78329); experiment: Inhibition test against 20-HETE producing enzyme CYP4F2 (luciferine derivative, luminescence); format: biochemical; conditions: E. coli membrane fraction expressing human CYP4F2, 2.5 μM luciferine derivative, room temperature 60 minutes
human CYP4F2, sequence (P78329 5-520): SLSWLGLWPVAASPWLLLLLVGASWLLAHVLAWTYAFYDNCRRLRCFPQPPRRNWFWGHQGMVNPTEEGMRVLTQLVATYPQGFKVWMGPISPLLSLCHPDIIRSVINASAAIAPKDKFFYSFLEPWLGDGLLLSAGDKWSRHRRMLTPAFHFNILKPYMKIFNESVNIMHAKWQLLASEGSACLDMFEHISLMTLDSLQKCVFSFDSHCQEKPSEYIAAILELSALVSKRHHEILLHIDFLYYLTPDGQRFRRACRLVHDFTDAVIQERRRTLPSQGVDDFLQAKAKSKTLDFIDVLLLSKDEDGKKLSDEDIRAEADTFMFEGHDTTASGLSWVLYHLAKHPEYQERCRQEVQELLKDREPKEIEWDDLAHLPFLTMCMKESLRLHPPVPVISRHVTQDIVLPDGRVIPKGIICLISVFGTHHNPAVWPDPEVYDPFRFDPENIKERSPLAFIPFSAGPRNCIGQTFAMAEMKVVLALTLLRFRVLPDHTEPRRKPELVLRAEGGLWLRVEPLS
Experimental: as §1, §2, §3, §4

human CYP4A11, sequence (Q02928 5-519): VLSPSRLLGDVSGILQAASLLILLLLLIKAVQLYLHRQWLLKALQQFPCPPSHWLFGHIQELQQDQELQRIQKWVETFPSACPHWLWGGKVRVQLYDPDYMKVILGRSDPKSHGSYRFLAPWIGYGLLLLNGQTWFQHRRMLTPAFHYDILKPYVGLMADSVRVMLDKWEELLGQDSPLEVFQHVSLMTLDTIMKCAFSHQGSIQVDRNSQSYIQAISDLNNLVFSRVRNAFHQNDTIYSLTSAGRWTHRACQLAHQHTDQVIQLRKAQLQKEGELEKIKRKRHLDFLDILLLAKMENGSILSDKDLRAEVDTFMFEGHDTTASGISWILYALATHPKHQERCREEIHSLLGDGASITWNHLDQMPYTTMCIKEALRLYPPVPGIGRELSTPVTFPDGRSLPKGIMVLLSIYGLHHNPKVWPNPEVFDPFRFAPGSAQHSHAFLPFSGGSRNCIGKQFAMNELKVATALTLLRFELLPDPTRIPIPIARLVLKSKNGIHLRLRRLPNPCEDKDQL

IC50 (human CYP4A11) [µM]	IC50 (human CYP4F2) [µM]	Structure (SMILES)
0.12	0.44	O=C(CCCC1(C(=O)O)CCCC1)N1CCC[C@@H](COc2ccc(-c3ccn[nH]3)nc2)C1 [Example 3-2]
0.39	2.3	O=C(CCC1(C(=O)O)CCCC1)N1CCC(CCOc2ccc(-c3ccn[nH]3)nc2)CC1 [Example 3-3]
1.8	0.26	O=C(CCC1(C(=O)O)CCCC1)N1CCCC(CCOc2ccc(-c3ccn[nH]3)nc2)C1 (stereo not shown) [Example 3-4]
2.2	3	CC(=O)N1CCC(CCCCCCOc2ccc(-c3ccn[nH]3)nc2)(C(=O)O)CC1 [Example 3-5]
0.81	2.7	CC(=O)N1CCC(CCCCCCOc2ccc(-c3ccn[nH]3)nc2)(C(=O)O)C1 (stereo not shown) [Example 3-6]
1.6	5.7	O=C(O)C1(CCCCCCOc2ccc(-c3ccn[nH]3)nc2)CCS(=O)(=O)CC1 [Example 3-7]
1.2	0.25	CC(=O)N1CCC(CCCCCCCOc2ccc(-c3ccn[nH]3)nc2)(C(=O)O)CC1 [Example 3-8]
0.24	0.43	O=C(O)C1(C(=O)NCCCCCCOc2ccc(-c3ccn[nH]3)nc2)CCCC1 [Example 3-9]
0.092	0.25	CN(CCCCCCOc1ccc(-c2ccn[nH]2)nc1)C(=O)C1(C(=O)O)CCCC1 [Example 3-10]
0.055	0.29	O=S(=O)(CCO)c1cccc(COc2ccc(-c3ccn[nH]3)nc2)c1 [Example 3-11]
0.022	0.83	O=C(O)CCCc1cccc(CCOc2ccc(-c3ccn[nH]3)nc2)c1 [Example 4-1, 4-[3-[2-[[6-(1H-Pyrazol-5-yl)-3-pyridinyl]oxy]ethyl]phenyl]butanoic Acid]
0.25	0.16	O=C(O)CCCc1ccc(CCOc2ccc(-c3ccn[nH]3)nc2)cc1 [Example 4-2]
0.073	1.7	O=C(O)c1ccc2c(c1)C(CCOc1ccc(-c3ccn[nH]3)nc1)CCC2 (stereo not shown) [Example 5-2]
0.77	0.0079	CC(=O)N1CCC(CCCCCCCCOc2ccc(-c3ccn[nH]3)nc2)(C(=O)O)CC1 [Example 6-1, 1-Acetyl-4-[8-[[6-(1H-pyrazol-5-yl)-3-pyridinyl]oxy]octyl]-4-piperidinecarboxylic Acid]
0.034	48	CC(C)(CCOc1ccc(-c2ccn[nH]2)nc1)CCC(=O)O [Example 7-1, 4,4-Dimethyl-6-[[6-(1H-pyrazol-5-yl)-3-pyridinyl]oxy]hexanoic Acid]
0.02	0.79	O=C(O)[C@H]1CC[C@@H](c2cccc(COc3ccc(-c4ccn[nH]4)nc3)c2)CC1 [Example 8-1, cis-4-[3-[[6-(1H-Pyrazol-5-yl)-3-pyridinyl]oxymethyl]phenyl]-1-cyclohexanecarboxylic Acid]
0.019	6.5	O=C(O)[C@H]1CC[C@H](c2cccc(COc3ccc(-c4ccn[nH]4)nc3)c2)CC1 [Example 8-2, trans-4-[3-[[6-(1H-Pyrazol-5-yl)-3-pyridinyl]oxymethyl]phenyl]-1-cyclohexanecarboxylic Acid]
0.028	0.86	O=C(O)C1CCCC(c2cccc(COc3ccc(-c4ccn[nH]4)nc3)c2)C1 (stereo not shown) [Example 8-3]
0.25	4.3	O=C(O)c1ccccc1-c1cccc(COc2ccc(-c3ccn[nH]3)nc2)c1 [Example 8-4]
0.56	2.3	CC(C)(C(=O)O)c1cccc(S(=O)(=O)CCCCOc2ccc(-c3ccn[nH]3)nc2)c1 [Example 8-5]
2.5	0.053	CC(C)(CCN1CCc2ccc(COc3ccc(-c4ccn[nH]4)nc3)cc2C1=O)C(=O)O [Example 8-6]
0.44	0.28	O=C(O)CCc1ccc(CCCOc2ccc(-c3ccn[nH]3)nc2)cc1 [Example 8-7]
0.26	1.1	O=C(O)Cc1ccc(CCCOc2ccc(-c3ccn[nH]3)nc2)cc1 [Example 8-8]
0.029	6.2	O=C(O)COc1ccc(COc2ccc(-c3ccn[nH]3)nc2)cc1 [Example 8-9]
0.035	1.3	O=C(O)c1ccnc(-c2cccc(COc3ccc(-c4ccn[nH]4)nc3)c2)c1 [Example 8-10]
0.014	0.12	O=C(O)c1cc(-c2cccc(COc3ccc(-c4ccn[nH]4)nc3)c2)ccn1 [Example 8-11]

More lines, now with the values behind:

Structure (SMILES)	IC50 (human CYP4A11) [µM]	IC50 (human CYP4F2) [µM]
O=C(O)C1(CCCCCCCOc2ccc(-c3ccn[nH]3)nc2)CCCC1 [Example 1-45]	0.046	0.019
O=C(O)C1(CCCCCCOc2ccc(-c3ccn[nH]3)nc2)CCCC1 [Example 1-46, 1-[6-[[6-(1H-Pyrazol-5-yl)-3-pyridinyl]oxy]hexyl]-1-cyclopentanecarboxylic Acid]	0.066	0.37
O=C(O)CCCCCOc1ccc(-c2ccn[nH]2)nc1 [Example 1-47, 6-[[6-(1H-Pyrazol-5-yl)-3-pyridinyl]oxy]hexanoic Acid]	0.068	14
O=C(O)CCCCCCCOc1ccc(-c2ccn[nH]2)nc1 [Example 1-48]	0.044	2
O=C(O)C1CCC(COc2ccc(-c3ccn[nH]3)nc2)CC1 (stereo not shown) [Example 1-49]	0.14	24
O=C(O)[C@H]1CC[C@@H](COc2ccc(-c3ccn[nH]3)nc2)CC1 [Example 1-50]	0.17	23
O=C(O)CCCCCCCCOc1ccc(-c2ccn[nH]2)nc1 [Example 1-51]	0.054	0.2
O=C(O)CCCCCCCCCOc1ccc(-c2ccn[nH]2)nc1 [Example 1-52]	0.044	0.041
O=C(O)C1CCCC(COc2ccc(-c3ccn[nH]3)nc2)C1 (stereo not shown) [Example 1-54]	0.057	3.4
O=C(O)C12CCCC(CCCOc3ccc(-c4ccn[nH]4)nc3)(C1)C2 [Example 1-55]	0.03	3.7
O=C(O)Cn1ccc(-c2cccc(COc3ccc(-c4ccn[nH]4)nc3)c2)cc1=O [Example 1-58]	0.086	0.65
CC(C)(CCCCOc1ccc(-c2ccn[nH]2)nc1)C(=O)O [Example 1-59]	0.042	17
CC(C)(CCCOc1ccc(-c2ccn[nH]2)nc1)CC(=O)O [Example 1-60]	0.038	31
CC(C)(CCCCCCOc1ccc(-c2ccn[nH]2)nc1)C(=O)O [Example 1-61, 2,2-Dimethyl-8-[[6-(1H-pyrazol-5-yl)-3-pyridinyl]oxy]octanoic Acid]	0.026	1.9
CC(C)(CCCCCCCOc1ccc(-c2ccn[nH]2)nc1)C(=O)O [Example 1-62]	0.023	0.096
CC(C)(CCCCCCCCOc1ccc(-c2ccn[nH]2)nc1)C(=O)O [Example 1-63]	0.036	0.0089
CCC(CC)(CCCCOc1ccc(-c2ccn[nH]2)nc1)C(=O)O [Example 1-64, 2,2-Diethyl-6-[[6-(1H-pyrazol-5-yl)-3-pyridinyl]oxy]hexanoic Acid]	0.028	7.5
COc1ccc(COc2ccc(-c3ccn[nH]3)nc2)cc1C(=O)O [Example 1-65, 2-Methoxy-5-[[6-(1H-pyrazol-5-yl)-3-pyridinyl]oxymethyl]benzoic Acid]	1.2	24
CC(C)(Oc1cccc(COc2ccc(-c3ccn[nH]3)nc2)n1)C(=O)O [Example 1-66]	0.33	> 50
CC(C)(OCCOCCCCOc1ccc(-c2ccn[nH]2)nc1)C(=O)O [Example 1-67]	0.12	10
O=C(O)C1CCc2cc(COc3ccc(-c4ccn[nH]4)nc3)ccc2O1 (stereo not shown) [Example 1-69]	0.075	3
O=C(O)[C@]12CC3C[C@H](C1)[C@H](COc1ccc(-c4ccn[nH]4)nc1)[C@@H](C3)C2 [Example 2-1, trans-4-[[6-(1H-Pyrazol-5-yl)-3-pyridinyl]oxymethyl]-1-adamantanecarboxylic Acid]	0.023	24
O=C(O)[C@]12CC3C[C@H](C1)[C@@H](COc1ccc(-c4ccn[nH]4)nc1)[C@@H](C3)C2 [Example 2-2, cis-4-[[6-(1H-Pyrazol-5-yl)-3-pyridinyl]oxymethyl]-1-adamantanecarboxylic Acid]	0.13	> 50
O=C(O)C1(OCCCCCCCOc2ccc(-c3ccn[nH]3)nc2)CCCC1 [Example 2-3]	0.099	0.075
O=C(O)C1(OCCOCCCCOc2ccc(-c3ccn[nH]3)nc2)CCCC1 [Example 2-4]	0.2	1.8
O=C(O)CCc1ccccc1CCOc1ccc(-c2ccn[nH]2)nc1 [Example 2-5, 3-[2-[2-[[6-(1H-Pyrazol-5-yl)-3-pyridinyl]oxy]ethyl]phenyl]propanoic Acid]	0.015	8.6
O=C(O)CCC12CCC(COc3ccc(-c4ccn[nH]4)nc3)(CC1)CC2 [Example 2-7]	0.035	4.4
